Data published in US20190284192A1, “NITROGENOUS MACROCYCLIC COMPOUND, PREPARATION METHOD THEREFOR, PHARMACEUTICAL COMPOSITION AND APPLICATION THEREOF” (LUOXIN PHARMACEUTICAL (SHANGHAI) CO., LTD., priority 2016, published 2019).
Like-named read-outs stand apart in the source and are kept apart here.

Experiments:
[1] = Metabolic stability in mouse liver microsomes; format: in vitro ADME; conditions: mouse liver microsomes 0.5 mg/mL, NADPH, 37° C.; for CLint scaled at 1 µM: pH 7.4, read-out: MLM_CLint
Description: (§1) Determinations of the metabolic stability of the compound from the above embodiments, the detailed operation steps are as followed:
(§2) 1. Preparation of buffer C:
(§3) Buffer A: 1.0 L of 0.1 M potassium dihydrogen phosphate buffer (containing 1.0 mM EDTA);
(§4) Buffer B: 1.0 L of 0.1 M dipotassium hydrogen phosphate buffer (containing 1.0 mM EDTA);
(§5) Buffer C: 500 mL Buffer B was titrated with Buffer A to pH 7.4.
(§6) 2. 10 mM stock solution preparation:
(§7) 10 mM test compound: A certain amount of the test compound was weighed and dissolved in DMSO.
(§8) 10 mM control: 5.455 mg of ketanserin dissolved in 1 mL DMSO.
(§9) 3. Preparation of the drug solution:
(§10) 500 μM solution: 5 μL of 10 mM stock solution (see step 2) was added into 95 μL ACN;
(§11) 1.5 μM dosing solution (dissolved in liver microsome solution):
(§12) 18.75 μL of 20 mg/mL liver microsomes was added into 479.75 μL of Buffer C, then 1.5 μL of 500 μM solution was added and mixed gently by shaking.
(§13) 4. Preparation of 6 mM NADPH solution:
(§14) 15 mg NADPH was weighted, then added into 3 mL of buffer C to prepare a 6 mM NADPH solution.
(§15) 5. 30 µL of 1.5 μM dosing solution (see step 3) was added into the wells of the 96-well plate set at different time points (0 minutes, 5 minutes, 15 minutes, 30 minutes, 45 minutes), number of dulplicate sample is 2.
(§16) 6. Preparation of a 0 minutes sample: 135 μL ACN (with internal standard) was added to the 0 minutes well, followed by 15 µL of 6 mM NADPH solution.
(§17) 7. The 96-well plate containing 1.5 μM dosing solution and NADPH solution were preheated in a 37° C. water bath for 5 minutes.
(§18) 8. The 15 µL of 6 mM NADPH solution preheated was added into the wells set to 5 minutes, 15 minutes, 30 minutes, 45 minutes, then the reaction was initiated and started counting the time.
(§19) 10. The sample was vortexed for 10 min, and then centrifuged for 15 minutes on a centrifuge (Thermo Multifuge×3R) using 5594×g.
(§20) 11. 50 μL of the supernatant was taken from the centrifuged sample, transferred to a 96-well sample plate to which 100 μL of ultrapure water had already been added, mixed, and finally sent to LC-MS/MS for analysis.
(§21) Half time (T1/2)=0.693/K (K is the rate constant obtained by linear regression of the logarithm of the concentration as vertical coordinates and the culturing time as the abscissa)
(§22) 2. According to the equation formula bellow, Excel was used to plot the compound content versus reaction time, as well as half life calculation (min)
(§23) Y=(Y0−Plateau)×e^(−K*X)+Plateau
(§24) Y0 represents the compound content at 0 minutes; Y represents the compound content; X represents the time point; K represents degration rate constant of the compound; Plateau represents the lowest possible content of the compound (defined herein as 0).

[2] = Metabolic stability in human liver microsomes; format: in vitro ADME; conditions: human liver microsomes 0.5 mg/mL, NADPH, 37° C.; for CLint scaled at 1 µM: pH 7.4, read-out: HLM_CLint
Description: as §1, §2, §3, §4, §5, §6, §7, §8, §9, §10, §11, §12, §13, §14, §15, §16, §17, §18, §19, §20, §21, §22, §23, §24

[3] = Cassette pharmacokinetic study, intravenous or oral administration; format: in vivo, female Balb/c nude mice; design: Cmax: unit not given here; conditions: for F: PO 2 mg/kg vs IV 0.5 mg/kg; for Cmax / AUC(0-inf) / AUC(0-t) / MRT inf / clearance / half-life / Vd / Tmax: N = 3, cassette; for AUC(0-inf) / AUC(0-t) / MRT inf / clearance / half-life / Vd / Tmax: female, Balb/c nude, mouse, whole blood; for half-life: read-out: Terminal t1/2 (converted); for Vd: read-out: Vss
Description: Determinations of the pharmacokinetic parameters of ABBV-075 (standard control), 4009, 4018, 4026 and 4031 in femal Balb/c nude mice after intravenous or oral administration.
Detailed Experimental Steps:
6 female Balb/c nude mice weighing 18-20 g were divided into two groups (3/group), after fixation, the intravenous group: 0.5 mg/kg (5 mL/kg) injected by caudal vein (N=3); the oral group: 2 mg/kg (10 mL/kg) by intragastic administration (N=3). Approximately 20 μL of blood was drawn behind the eyeball at the sampling point and placed in EDTA-2K tube. The sample was immediately diluted with 40 μL of double distilled water and vortexed until well mixed. Blood samples were stored at approximately −70° C. and submitted to the BA group for analysis (LC/MS). 30 μL of blood sample was added with 200 μL of H2O and 30 μL of IS dexamethasone, 200 ng/mL), layered by LLE, and 1 mL of MTBW was added as an organic extraction solvent. The mixture was vortexed for 10 min and centrifuged at 10,000 rpm for 5 min. 850 μL of the supernatant was evaporated under nitrogen until desiccated. The desiccated extract was re-mixed with 150 μL of 50% methanol, vortexed for 2 min, and then analyzed by injecting 5 μL of the supernatant into LC-MS/MS.
2. Intravenous/oral administration formula: 5% DMSO, 95% (10% HP-3-CD in water)
3. PK calculation parameter used non-compartment model, WinNonlin 6.4 software calculation

MV-4-11 cells = test: Inhibitory effect on MV-4-11 cells (CellTiter-Glo); format: cell-based; conditions: Homo sapiens, MV4-11; 72 hours, CellTiter-Glo; read-out: MV-4-11
Description: The 1st Day: Seed the Cells on the Plate
1. The cells were verified that they were in good conditions by observation under microscope;
2. The cells were transferred to a 15 mL centrifuge tube, after centrifuged at 1000 rpm for 5 min, the supernatant was discarded;
3. The complete medium (IMDM+10% FBS) was added, then blown and patted into single cell suspension, counted by Vi-cell cytometer, the cell suspension was adjusted to desired cell density by the complete medium.
4. The cells were inoculated into a 96 well plate, the cell number was 15000/well at 100 μL per well, 100 μL complete medium was added into the black control.
5. 37° C., 5% CO2 culture overnight.
The 2nd Day: Addition of the Drugs
1. 1000× Compound Plate Preparation
1.1. The test compound was prepared into 10 mM working solution by using DMSO. Then the STS was prepared into 2 mM working solution by using DMSO.
1.2. In the round bottom 96 wells plate, the column 2 of row A to H was added into 60 μL 10 mM test compound (or STS) working solution, columns 3-11 were added into 40 μL DMSO, 20 μL drug solution was pipetted from the column 2 to the column 3, blown and patted for a homogeneous mixture; then 20 μL solution was pipetted from the column 3 to the column 4, blown and patted for a homogeneous mixture, sequently, the drug was diluted by 3 times, 10 concentrations in total. The columns 1 and 12 were supplemented with 40 μL of DMSO.
2. Intermediate plate areparation
A sterile V-bottom 96 deep well plate was used and in each well, 495 μL FBS-free PRMI 1640 medium was added, then 5 μL of the diluted compound (or DMSO) in the 1000× compound plate was pipetted into corresponding position of the V-bottom 96 well plate, blown and patted evenly.
3.1. The cell plate was taken out from the incubator and was observed under microscope. The diluted compound or DMSO in the intermediate plate was added into the cell plate, 11 μL each well.
3.2. The cell was continued to be cultured at 37° C., 5% CO2 for 72 hours.
The 5th Day: CellTiter-Glo Detection of the Cell Activity
1. The CellTiter-Glo buffer and the reaction substrate were taken out from the refrigerator, after balanced to r.t., the buffer was poured into a brown bottle containing the substrate, the bottle was upside down to have the substrate powder sufficientaly dissolved.
2. The cell was observed under microscope; the cell plate was balanced to r.t.
3. The prepared CellTiter-Glo was added into the 96 well plate, at 100 μL/well.
4. The cell plate was placed on a shaker for 10 min, followed by standing at r.t. for 10 min.
5. A white seal film was attached to the bottom of the well plate, and the chemiluminescence signal of each well was detected by the Enspire microplate detector.
6. XLfit was used for data processing. Inhibition rate %=(d−c)/(d−b)×100, while d is the signal value of the DMSO treated group, c is the signal value of the compound treated group, b is signal value of the blank control that only containing medium and DMSO without cells. The data was fitted using the f(x)205[fit=(A+((B−A)/(1+((C/x)^∧D))))] equation in the XLfit software.

BRD4 (BD1) = biological target: T1, BRD4 (BD1) (Homo sapiens, UniProt O60885); test: BRD4 (BD1) bromodomain binding, HTRF; conditions: 2 h incubation at r.t.
T1 construct: Each member comprises two tandem bromodomains (BD1 and BD2) for recognizing the acetylated lysine residues

| SMILES | MLM_T1/2 [1] | CLint scaled at 1 µM [1] | HLM_T1/2 [2] | CLint scaled at 1 µM [2] | F [3] | Cmax ([3]; PO 2 mg/kg) | AUC(0-inf) ([3]; IV 0.5 mg/kg) | AUC(0-t) ([3]; IV 0.5 mg/kg) | MRT inf ([3]; IV 0.5 mg/kg) | clearance ([3]; IV 0.5 mg/kg) | half-life ([3]; IV 0.5 mg/kg) | Vd ([3]; IV 0.5 mg/kg) | AUC(0-inf) ([3]; PO 2 mg/kg) | AUC(0-t) ([3]; PO 2 mg/kg) | Tmax ([3]; PO 2 mg/kg) | half-life ([3]; PO 2 mg/kg) | IC50 (MV-4-11 cells) | IC50 (BRD4 (BD1)) |
| --- | --- | --- | --- | --- | --- | --- | --- | --- | --- | --- | --- | --- | --- | --- | --- | --- | --- | --- |
| CCS(=O)(=O)Cc1ccc2c(c1)-c1cn(C)c(=O)cc1CN=C2c1ccc(F)cc1 [Compound 4009, 7-(4-fluorophenyl)-2-methyl-10-(ethylsulfonemethyl)-2H-benzo[c]pyrido[3,4-e]azepin-3(5H)-ketone] | 588.07 min | 9.28 mL/min/kg | 471.41 min | 3.69 mL/min/kg | 99.7% | 742 | 590 ng·h/mL | 575 ng·h/mL | 1.61 h | 14.2 mL/min/kg | 1.69 h | 1.38 L/kg | 2350 ng·h/mL | 2250 ng·h/mL | 0.667 h | 4.21 h | 53 nM | 6 nM |
| CCS(=O)(=O)Nc1ccc(Oc2ccc(F)cc2F)c(-c2cn(C)c(=O)c3[nH]ccc23)c1 [ABBV-075] | 81.11 min | 67.3 mL/min/kg | 1465.60 min | 1.19 mL/min/kg | 62.5% |  | 510 ng·h/mL | 457 ng·h/mL | 3.1 h | 16.4 mL/min/kg | 2.8 h | 3.06 L/kg | 1680 ng·h/mL | 1140 ng·h/mL | 1 h | 4.56 h | 7 nM | 2 nM |
| CCS(=O)(=O)Cc1ccc2c(c1)-c1cn(C)c(=O)cc1[C@H](C)N=C2c1ccc(F)cc1 [Compound 4026, (S)-10-((ethylsulfone)methyl)-7-(4-fluorophenyl)-2,5-dimethyl-2,5-dihydro-3H-benzo[c]pyrido[3,4-e]azepin-3-ketone] | ∞ |  | ∞ |  | 89.5% | 1082 | 1140 ng·h/mL | 1100 ng·h/mL | 3.21 h | 7.5 mL/min/kg | 2.85 h | 1.43 L/kg | 4050 ng·h/mL | 3740 ng·h/mL | 0.5 h | 4.35 h | 4 nM | 2 nM |
